In US10206909B2, “3-(1H-pyrrolo[2,3-B]pyridin-2-yl)-1H-pyrazolo[4,3-B]pyridines and therapeutic uses thereof” (Samumed, LLC, priority 2015, dated 2019):

Tests used:
Type in all cases: cell-based
[1] = tested on: Wnt activity (Sp5-Luc reporter, SW480 colon carcinoma cells); assay: Wnt activity screening assay: Sp5-Luc reporter gene assay in SW480 cells; details: Homo sapiens; for EC50: SW480 cells, overnight incubation; for inhibition at 10 µM: given where EC50 >10 μM, SW480, read-out: percent inhibition at 10 μM
Source text: The screening assay for Wnt activity is described as follows. Reporter cell lines can be generated by stably transducing cancer cell lines (e.g., colon cancer) or primary cells (e.g., IEC-6 intestinal cells) with a lentiviral construct that includes a Wnt-responsive promoter driving expression of the firefly luciferase gene.
SW480 colon carcinoma cells were transduced with a lentiviral vector expressing luciferase with a human Sp5 promoter consisting of a sequence of eight TCF/LEF binding sites. SW480 cells stably expressing the Sp5-Luc reporter gene and a hygromycin resistance gene were selected by treatment with 150 μg/mL of hygromycin for 7 days. These stably transduced SW480 cells were expanded in cell culture and used for all further screening activities. Each compound was dissolved in DMSO as a 10 mM stock and used to prepare compound source plates. Serial dilution (1:3, 10-point dose-response curves starting from 10 μM) and compound transfer was performed using the ECHO 550 (Labcyte, Sunnyvale, Calif.) into 384-well white solid bottom assay plates (Greiner Bio-One) with appropriate DMSO backfill for a final DMSO concentration of 0.1%. For Sp5-Luc reporter gene assays, the cells were plated at 4,000 cells/well in 384-well plates with medium containing 1% fetal bovine serum and incubated overnight at 37° C. and 5% CO2. Following incubation, 20 μl of BrightGlo luminescence reagent (Promega) was added to each well of the 384-well assay plates. The plates were placed on an orbital shaker for 2 min and then luminescence was quantified using the Envision (Perkin Elmer) plate reader. Readings were normalized to DMSO only treated cells, and normalized activities were utilized for EC50 calculations using the dose-response log (inhibitor) vs. response -variable slope (four parameters) nonlinear regression feature available in GraphPad Prism 5.0 (or Dotmatics). For EC50 of >10 μM, the percent inhibition at 10 μM is provided.

SW480 colon cancer cells = assay: Cell viability assay (CellTiter-Blue); details: Homo sapiens; for EC50: 96 h, SW480 cell viability, four days, CellTiter-Blue; for inhibition at 10 µM: given where EC50 >10 μM, SW480 viability, read-out: percent inhibition at 10 μM
Experimental: Representative compounds were screened using the following assay procedure to assess the effect on cell viability as described below.
Each compound was dissolved in DMSO as a 10 mM stock and used to prepare compound source plates. Serial dilution (1:3, 8-point dose-response curves from 10 μM to 0.0045 μM) and compound transfer was performed using the ECHO 550 (Labcyte, Sunnyvale, Calif.) into 96-well clear bottom, black-walled plates (Corning-Costar).
Approximately 2×10^3 SW480 colon cancer cells were seeded into each well and allowed to incubate in the presence or absence of compound for four days at 37° C./5% CO2. Eight replicates of DMSO-treated cells served as controls and cells treated with compound were performed in duplicate.
After incubation, 20 μL of CellTiter-Blue (Promega) was added to each well allowed to incubate for approximately 3 hours. This reagent was a buffered solution which contains resazurin, metabolically active cells were able to reduce rezarurin (blue) into resorufin (pink) which was highly fluorescent. This measured fluorescence was used as a readout for cell viability.
After incubation, the plates were read at Ex 560 nm Em 590 nm (Cytation 3, BioTek). Dose-response curves were generated and EC50 concentration values were calculated using non-linear regression curve fit in the GraphPad Prism (San Diego, Calif.) or Dotmatics' Studies Software (Bishops Stortford, UK). For EC50 of >10 μM, the percent inhibition at 10 μM is provided.

IL-6 (THP-1 cells) = assay: IL-6 inhibition in LPS-stimulated THP-1 cells (HTRF); details: Homo sapiens; for EC50: THP-1 cells, LPS 500 ng/mL, 22 hours, IL6 HTRF; for inhibition at 10 µM: given where EC50 >10 μM, THP-1, IL6, read-out: percent inhibition at 10 μM
Experimental: Human Monocyte Cell Culture: Human monocyte cell line (THP-1 cells; Catalog # TIB-202, ATCC, Manassas, Va.) were cultured in Roswell Park Memorial Institute (RPMI) 1640 Medium (Catalog #21870-100, Buffalo, N.Y.) with 1% L-glutamine, 1% HEPES, 1% Sodium Pyruvate, 2% Sodium Bicarbonate supplemented with 100 units/mL penicillin, 50 μg/mL streptomycin, 2-mercaptoethanol (0.05 mM) [basal medium] and 10% fetal bovine serum (Catalog #16140089, Life Technologies, Carlsbad, Calif.) at 37° C. and 5% CO2.
Compound Screening: THP-1 cells were cultured in basal media with 1% FBS for 24 hours before the start of the assay. Each compound was dissolved in DMSO as a 10 mM stock and used to prepare compound source plates. Serial dilution (1:3, 10-point dose-response curves starting from 10 μM) and compound transfer was performed using the ECHO 550 (Labcyte, Sunnyvale, Calif.) into 384-well white low volume assay plates (Greiner Bio-One) with appropriate DMSO backfill for a final DMSO concentration of 0.1%. THP-1 cells were plated at 5000 cells/well in the 384-well plates and incubated at 37° C. for 2 h. 500 ng/mL of LPS was added after 2 hours and cells were incubated for another 22 hours at 37° C. Plates were spun in a centrifuge for 1 minute at […] and a mixture of anti-IL6 XL665, and anti-IL6 Cryptate diluted in reconstitution buffer (Cisbio Inc.) was added to each well. Following incubation for 3 hrs at room temperature, Homogeneous Time-Resolved Fluorescence (HTRF) was measured using the Envision (Perkin Elmer) at 665 nm and […]. The ratio of fluorescence at 665 nm to 620 nm was used as a readout for IL6 quantification. All samples were processed in duplicate. Readings were normalized to DMSO treated cells and normalized activities were utilized for EC50 calculations using the dose-response log (inhibitor) vs. response —variable slope (four parameters) nonlinear regression feature available in GraphPad Prism 5.0 (or Dotmatics). For EC50 of >10 μM, the percent inhibition at 10 μM is provided.

| EC50 [1] [µM] | EC50 (SW480 colon cancer cells) [µM] | EC50 (IL-6 (THP-1 cells)) [µM] | Structure (SMILES) | inhibition at 10 µM [1] [%] | inhibition at 10 µM (SW480 colon cancer cells) [%] | inhibition at 10 µM (IL-6 (THP-1 cells)) [%] |
| --- | --- | --- | --- | --- | --- | --- |
| > 10 | > 10 | > 10 | Cc1ccncc1-c1ccc2[nH]nc(-c3cc4c(-c5ccncc5)ccnc4[nH]3)c2n1 [Compound 117, 5-(4-Methylpyridin-3-yl)-3-(4-(pyridin-4-yl)-1H-pyrrolo[2,3-b]pyridin-2-yl)-1H-pyrazolo[4,3-b]pyridine] | 11.8 | 3.4 | 45.3 |
| > 10 | > 10 | 3.5 | c1cc(N2CCCCC2)c2cc(-c3n[nH]c4ccc(C5CCNCC5)nc34)[nH]c2n1 [Compound 601, 3-(4-(Piperidin-1-yl)-1H-pyrrolo[2,3-b]pyridin-2-yl)-5-(piperidin-4-yl)-1H-pyrazolo[4,3-b]pyridine] | 3.5 | 40.7 |  |
| > 10 | 3.72 | > 10 | c1cc(-c2ccnc3[nH]c(-c4n[nH]c5ccc(-c6cncc(CNCC7CCCC7)c6)nc45)cc23)ccn1 [Compound 137, 1-Cyclopentyl-N-((5-(3-(4-(pyridin-4-yl)-1H-pyrrolo[2,3-b]pyridin-2-yl)-1H-pyrazolo[4,3-b]pyridin-5-yl)pyridin-3-yl)methyl)methanamine] | 19.5 |  | 40.8 |
| > 10 | 4.7 | > 10 | O=C(Nc1cncc(-c2ccc3[nH]nc(-c4cc5c(-c6ccccc6F)ccnc5[nH]4)c3n2)c1)C1CC1 [Compound 76, N-(5-(3-(4-(2-Fluorophenyl)-1H-pyrrolo[2,3-b]pyridin-2-yl)-1H-pyrazolo [4,3-b]pyridin-5-yl)pyridin-3-yl)cyclopropanecarboxamide] | 37.3 |  | 42.2 |
| 2.26 | > 10 | 0.046 | Cn1cc(-c2ccc3[nH]nc(-c4cc5cccnc5[nH]4)c3n2)cn1 [Compound 652, 5-(1-Methyl-1H-pyrazol-4-yl)-3-(1H-pyrrolo[2,3-b]pyridin-2-yl)-1H-pyrazolo[4,3-b]pyridine] |  | 29.2 |  |
| 6.09 | 3.27 | > 10 | CN1CCN(c2ccnc3[nH]c(-c4n[nH]c5ccc(-c6cncc(NC(=O)c7ccccc7)c6)nc45)cc23)CC1 [Compound 235, N-(5-(3-(4-(4-Methylpiperazin-1-yl)-1H-pyrrolo[2,3-b]pyridin-2-yl)-1H-pyrazolo[4,3-b]pyridin-5-yl)pyridin-3-yl)benzamide] |  |  | 48.1 |
| > 10 | > 10 | 1.84 | Fc1cccc(-c2ccnc3[nH]c(-c4n[nH]c5ccc(-c6cccnc6)nc45)cc23)c1 [Compound 4, 3-(4-(3-Fluorophenyl)-1H-pyrrolo[2,3-b]pyridin-2-yl)-5-(pyridin-3-yl)-1H-pyrazolo[4,3-b]pyridine] | 47.3 | 6.4 |  |
| > 10 | > 10 | > 10 | CN(C)Cc1cncc(-c2ccc3[nH]nc(-c4cc5c(N6CCCCC6)ccnc5[nH]4)c3n2)c1 [Compound 181, N,N-Dimethyl-1-(5-(3-(4-(piperidin-1-yl)-1H-pyrrolo[2,3-b]pyridin-2-yl)-1H-pyrazolo[4,3-b]pyridin-5-yl)pyridin-3-yl)methanamine] | 4.1 | 47.5 | 29.2 |
| > 10 | > 10 | > 10 | c1cncc(-c2ccnc3[nH]c(-c4n[nH]c5ccc(-c6ccncc6)nc45)cc23)c1 [Compound 102, 3-(4-(Pyridin-3-yl)-1H-pyrrolo[2,3-b]pyridin-2-yl)-5-(pyridin-4-yl)-1H-pyrazolo[4,3-b]pyridine] | 9.5 | 10 | 23.9 |
| > 10 | > 10 | > 10 | Cc1ccncc1-c1ccc2[nH]nc(-c3cc4c(-c5ccc(F)cc5)ccnc4[nH]3)c2n1 [Compound 33, 3-(4-(4-Fluorophenyl)-1H-pyrrolo[2,3-b]pyridin-2-yl)-5-(4-methylpyridin-3-yl)-1H-pyrazolo[4,3-b]pyridine] | 16.2 | 15.9 | 5.4 |
| > 10 | > 10 | > 10 | c1ncc(-c2ccc3[nH]nc(-c4cc5c(N6CCCCC6)ccnc5[nH]4)c3n2)cn1 [Compound 195, 3-(4-(Piperidin-1-yl)-1H-pyrrolo[2,3-b]pyridin-2-yl)-5-(pyrimidin-5-yl)-1H-pyrazolo[4,3-b]pyridine] | 12.6 | 22.9 | 26 |
| > 10 | > 10 | > 10 | c1cc(N2CCCCC2)c2cc(-c3n[nH]c4ccc(-c5cncc(CN6CCCCC6)c5)nc34)[nH]c2n1 [Compound 183, 3-(4-(Piperidin-1-yl)-1H-pyrrolo[2,3-b]pyridin-2-yl)-5-(5-(piperidin-1-ylmethyl)pyridin-3-yl)-1H-pyrazolo[4,3-b]pyridine] | 6.5 | 45.5 | 18.2 |
| > 10 | > 10 | > 10 | Fc1ccc(-c2ccnc3[nH]c(-c4n[nH]c5ccc(-c6cncc(CN7CCC(F)(F)C7)c6)nc45)cc23)cc1 [Compound 54, 5-(5-((3,3-Difluoropyrrolidin-1-yl)methyl)pyridin-3-yl)-3-(4-(4-fluorophenyl)-1H-pyrrolo[2,3-b]pyridin-2-yl)-1H-pyrazolo[4,3-b]pyridine] | 10.2 | 27.8 | 34.8 |
| > 10 | > 10 | 1.61 | c1csc(-c2ccnc3[nH]c(-c4n[nH]c5ccc(-c6ccncc6)nc45)cc23)c1 [Compound 354, 5-(Pyridin-4-yl)-3-(4-(thiophen-2-yl)-1H-pyrrolo[2,3-b]pyridin-2-yl)-1H-pyrazolo[4,3-b]pyridine] | 14.6 | 39.8 |  |
